In this experiment the target is Bromodomain-containing protein 4 (Homo sapiens, UniProt O60885). The experiment can be described thus: Inhibition of BRD4 bromodomain 2 (unknown origin) in HEK293 cells cotransfected with eGFP by flow cytometry based mCherry reporter gene analysis. The experiment is classed as cell-based.
In general, IC50 refers to the concentration at which inhibition is half-maximal. A higher IC50 goes with weaker potency. `O=C1CCC(N2Cc3c(NC(=O)CNc4ccnc(N5CCN(c6cccc(C(F)(F)F)c6)CC5)n4)cccc3C2=O)C(=O)N1` (stereo not given) had an IC50 of 517 nM. To `O=C1CCC(N2Cc3c(NC(=O)CNc4ccnc(N5CCC[C@@H]5CO)n4)cccc3C2=O)C(=O)N1` (stereo not given in full) belongs 1600 nM; to `Nc1ccc(C(=O)NC2CCC(=O)NC2=O)c2ncccc12` (stereo not given), 2900 nM. To `Nc1ccnc2c(C(=O)NC3CCC(=O)NC3=O)cccc12` (stereo not given) belongs 7700 nM; to `CN(c1ccccc1)c1nccc(NCC(=O)Nc2cccc3c2CN(C2CCC(=O)NC2=O)C3=O)n1` (stereo not given), 3440 nM.

These data come from ChEMBL document CHEMBL4616687, “Ligand Design for Cereblon Based Immunomodulatory Therapy” (ACS Med Chem Lett, 2020).
